Experimental data from ChEMBL document CHEMBL5441456, “ASAP - SARS-CoV-2 nsp3 macrodomain dose response” (2024).
Where “and” joins values, the source holds several entries; their conditions need not be identical. Identical values can stand only once.

target: Replicase polyprotein 1ab (Severe acute respiratory syndrome coronavirus 2, UniProt P0DTD1); assay: Functional biochemical assay to identify treatments for viral infectious disease that targets SARS-COV-2 nsp3 macrodomain, whereby the mechanism of action displaces an ADP-Ribose modified peptide from the binding site. Utilizing a time-resolved fluorescence method to measure binding by reading the emitted fluorescence intensity in two wavelengths.

| Compound | IC50 |
| --- | --- |
| CC(C)[C@@H](Nc1ncnc2[nH]ccc12)c1ccc(F)c(C#N)c1 | 4150 nM and 16600 nM |
| CNS(=O)(=O)c1cc2c(N[C@@H](c3ccc4c(c3)S(=O)(=O)CCC4)C(C)C)ncnc2[nH]1 | 1170 nM |
| O=C(O)CC(NC(=O)c1ncnc2[nH]ccc12)c1ccc(NC2C[C@H]3CC(CO)C[C@@H]23)cc1 (some centres not stated) | > 99500 nM |
| CNc1nccc(N[C@@H](c2ccc3c(c2)S(=O)(=O)CCC3)C(C)C)n1 | > 99500 nM |
| CC(C)[C@@H](Nc1ncnc2[nH]ccc12)c1ccc2c(c1)S(=O)(=O)NCC2 | 1270 nM and 967 nM |
| CCc1[nH]nnc1NC(=O)c1cc2c(N[C@@H](c3ccc4c(c3)OCCO4)C(C)C)ncnc2[nH]1 | 4420 nM and 4280 nM |
| COc1c(Cl)ncnc1N[C@@H](c1ccc2c(c1)S(=O)(=O)CCC2)C(C)C | > 99500 nM |
| CC(C)[C@@H](Nc1ncnc2[nH]c(C(=O)NCC3CN(C)C3)cc12)c1ccc2c(c1)OCCO2 | 866 nM and 790 nM |
| CCNC(=O)c1cc2c(N[C@@H](CCc3cccc(NS(C)(=O)=O)c3)C(C)C)ncnc2[nH]1 | > 99500 nM |
| CC(C)[C@H](Nc1ncnc2[nH]c(-c3cnn(CC(N)=O)c3)cc12)c1ccc2c(n1)OCCO2 | 11600 nM |
| CC(C)[C@H](Nc1ncnc2[nH]c(C(=O)N[C@H]3CCN(C)C3)cc12)c1ccc2c(c1)S(=O)(=O)CCC2 | 3150 nM |
| COC(=O)c1cc2c(N[C@@H](c3ccc4c(c3)CCN4)C(C)C)ncnc2[nH]1 | 28800 nM and 37600 nM and 28400 nM |
| CC(C)[C@H](Nc1ncnc2[nH]cc(C(=O)NC3CC3)c12)c1ccc2c(c1)S(=O)(=O)CCC2 | 3900 nM and 6460 nM and 4280 nM |
| CC(C)[C@@H](Nc1ncnc2[nH]c(C(=O)NC3CCN(C)CC3)cc12)c1ccc2c(c1)S(=O)(=O)CCC2 | 208 nM |
| CCNC(=O)c1cc2c(N[C@@H](c3ccc4c(c3)S(=O)(=O)CCC4)C3CC3)ncnc2[nH]1 | 395 nM and 261 nM |
| CCNC(=O)c1cc2c(N[C@@H](c3ccc4c(c3)CCN4C(=O)C3CC3)C(C)C)ncnc2[nH]1 | 24600 nM |
| CC(C)[C@@H](Nc1nccc2[nH]c(=O)[nH]c12)c1ccc2c(c1)S(=O)(=O)CCC2 | > 99500 nM |
| COc1ccc([C@@H](NC(=O)c2ncnc3[nH]ccc23)C(C)(C)C#N)cc1 | > 99500 nM |
| CC(C)[C@@H](Nc1ncnc2[nH]ccc12)c1ccc2c(c1)S(=O)(=O)N(C)CC2 | 5760 nM and 17000 nM |
| CCNC(=O)c1cc2c(N[C@@H](c3cccnc3OCC(F)(F)F)C(C)C)ncnc2[nH]1 | > 99500 nM |
| CNC(=O)Cn1cc(-c2cc3c(N[C@H](c4ccc5c(c4)OCCO5)C(C)C)ncnc3[nH]2)cn1 | 213 nM and 224 nM |

| Compound | IC50 |
| --- | --- |
| CCNC(=O)c1cc2c(NC3(c4ccc5c(c4)S(=O)(=O)CCC5)CCC3)ncnc2[nH]1 | 3050 nM |
| CC(C)[C@H](Nc1ncnc2[nH]c(C(=O)N[C@@H]3CCN(C)C3)cc12)c1ccc2c(c1)S(=O)(=O)CCC2 | 3160 nM and 2860 nM and 3790 nM and 1620 nM |
| CC(C)[C@@H](Nc1ncnc2[nH]c(C(=O)NCCc3c[nH]nn3)cc12)c1ccc2c(c1)OCCO2 | 1290 nM and 947 nM |
| CC(C)[C@@H](Nc1ncnc2[nH]c(C(=O)NCc3nncn3C)cc12)c1ccc2c(c1)OCCO2 | 1390 nM and 1230 nM |
| COc1ccc([C@@H](NC(=O)c2ncnc3[nH]ccc23)C(C)(C)c2nnn[nH]2)cc1 | 1690 nM and 3910 nM |
| CC(C)[C@H](Nc1ncnc2[nH]c(-c3cnn(C)c3C#N)cc12)c1ccc2c(c1)OCCO2 | 238 nM and 901 nM |
| CC(C)[C@@H](Nc1ncnc2[nH]c(C3=CCS(=O)(=O)C3)cc12)c1ccc2c(c1)S(=O)(=O)CCC2 | 107 nM and 171 nM and 117 nM |
| CC(C)[C@@H](Nc1ncnc2[nH]c(S(C)(=O)=O)cc12)c1ccc2c(c1)S(=O)(=O)CCC2 | 992 nM |
| Cn1ncc(-c2cc3c(N[C@H](c4ccc5c(n4)OCCO5)C(C)(C)C)ncnc3[nH]2)c1C#N | 4960 nM and 2330 nM and 3080 nM and 2420 nM and 10800 nM |
| Cc1ncc(CNC(=O)c2cc3c(N[C@@H](c4ccc5c(c4)OCCO5)C(C)C)ncnc3[nH]2)o1 | 695 nM and 623 nM |
| CC(C)[C@@H](Nc1ncnc2[nH]c(C(=O)NC3CN(C)C3)cc12)c1ccc2c(c1)S(=O)(=O)CCC2 | 189 nM |
| CC(C)[C@@H](Nc1ncnc2[nH]c(C(=O)N[C@@H]3CCN(C)C3)cc12)c1ccc2c(c1)OCCO2 | 414 nM and 502 nM |
| CC(C)[C@@H](Nc1ncnc2[nH]c(C(=O)NCc3ccn(C)n3)cc12)c1ccc2c(c1)OCCO2 | 955 nM and 1040 nM |
| CC(C)[C@@H](c1ccc2c(c1)S(=O)(=O)CCC2)n1c(=O)[nH]c2c(N)ccnc21 | > 99500 nM |
| CCNC(=O)c1cc2c(N[C@@H](CC(=O)Nc3cnn(C(C)C)c3)C(C)C)ncnc2[nH]1 | 27700 nM and 23500 nM |
| CCNC(=O)c1cc2c(N[C@H](c3ccc4c(c3)S(=O)(=O)CCC4)C(C)C)ncnc2[nH]1 | 1280 nM |
| CC(C)[C@@H](Nc1ncnc2[nH]ccc12)c1ccc2c(c1)SCCO2 | 1870 nM and 1940 nM |
| CC(C)[C@H](Nc1ncnc2[nH]c(-c3cnn(CC(N)=O)c3)cc12)c1ccc2c(c1)NC(=O)CO2 | > 99500 nM |
| CCNC(=O)c1cc2c(N[C@@H](c3cnc(NC(C)=O)s3)C(C)C)ncnc2[nH]1 | 4350 nM and 5380 nM and 4140 nM |
| CNC(=O)c1cc2c(N[C@H](c3ccc4c(c3)NC(=O)CO4)C(C)C)ncnc2[nH]1 | 5360 nM and 961 nM and 1340 nM and 1080 nM |
| CC(C)[C@@H](Nc1ncnc2[nH]ccc12)c1ccc2c(c1)[S+]([O-])CCO2 (some centres not stated) | 604 nM and 628 nM |
